The source of these data is patent US20050182140A1, “Antimicrobial compositions” (Microban Products Company, priority 2003, published 2005).

Assay type in all cases: cell-based
The subject of experiment [1] is K. pneumoniae. In words: Kirby Bauer Test Method, treated cotton samples (Example 3). The settings on record: agent at 800 ppm with R10800 at 0.67% and USV at 0.33%, cotton laundered 50 times. Here is the method:
(§1) The efficacy of Emulsion A in cotton sample material was tested, alone and in combination with other agents. The Kirby Bauer Test Method, which is a known bacterial test method, was followed. The sample size of the cotton was 38.1 mm×38.1 mm (1.5 inches×1.5 inches) square. The growth medium was Mueller-Hinton Agar. Prior to treatment, the cotton was steam sterilized at 121° C. The samples were pre-wet with sterile deionized water. The samples were incubated at 37° C.±2° C. for 18 to 24 hours. The samples were each laundered 50 times unless indicated to the contrary. NZ means that no zone of inhibition surrounded the sample. NI means that there was no inhibition of growth under the sample (if observable). The zone of inhibition was reported in millimeters.
(§2) Note that the percentages of R10800 and USV represent target loading levels on the cotton samples.

For experiment [2], the system named is S. aureus 6538. Described as above. Conditions: agent at 800 ppm with R10800 at 0.67% and USV at 0.33%, cotton laundered 50 times. The procedure: as §1, §2
In experiment [3] the test system is K. pneumoniae. In words: AATCC Test Method 147, treated cotton samples (Examples 2 and 4). Conditions: Example 2; agent at 900 ppm; cotton laundered 50 times. Here is the method: (§3) The efficacy of Emulsion A in cotton sample material was tested, alone and in combination with other agents. The AATCC Test Method 147, which is a known bacterial test method for textiles, was followed. The sample size of the cotton was a 25 mm×75 mm rectangle. The growth medium was Nutrient Agar. Prior to treatment, the cotton was steam sterilized at 121° C. The samples were incubated at 37° C.±2° C. for 18 to 24 hours. The samples were each laundered 50 times prior to doing the micro testing unless indicated to the contrary. NZ means that no zone of inhibition surrounded the sample. NI means that there was no inhibition of growth under the sample (if observable). The zone of inhibition was reported in millimeters.
(§4) The efficacy of Emulsion A in cotton sample material was tested, alone and in combination with other agents. The AATCC Test Method 147, which is a known test method, was followed. The sample size of the cotton was 25 mm×75 mm rectangle. The growth medium was Nutrient Agar. Prior to treatment, the cotton was steam sterilized at 121° C. The samples were incubated at 37° C.±2° C. for 18 to 24 hours. The samples were each laundered 50 times unless indicated to the contrary. NZ means that no zone of inhibition surrounded the sample. NI means there was no inhibition of growth under the sample (if observable). The zone of inhibition was reported in millimeters.

Experiment [4] relates to S. aureus 6538. The description is as above. The settings on record: Example 2; agent at 900 ppm; cotton laundered 50 times. The procedure: as §3, §4

As for `O=C(Nc1ccc(Cl)cc1)Nc1ccc(Cl)c(Cl)c1` [Triclocarban], the “Size of Zone” value with K. pneumoniae [1] and in the experiment with S. aureus 6538 [2] was 0 mm throughout. Besides, the “Zone Results” value with K. pneumoniae [1] and with S. aureus 6538 [2] was “NZ/NI” in each case.
As to `Oc1ccccc1-c1ccccc1` [Ortho-phenyl phenol], the “Size of Zone” value in the experiment on K. pneumoniae [1] and in the experiment with S. aureus 6538 [2] was 0 mm throughout. The “Zone Results” value with K. pneumoniae [1] and in the experiment with S. aureus 6538 [2] was “NZ/NI” each time.
As to “Zinc pyrithione [Zinc pyrithione (FPS dispersion)]”, the “Size of Zone” value was 0 mm with K. pneumoniae [3], 2 mm with S. aureus 6538 [4], 0 mm in the experiment with K. pneumoniae [1] and 0 mm with S. aureus 6538 [2]. The “Zone Results” value with K. pneumoniae [3] is recorded as “NZ/NI”; in the experiment on K. pneumoniae [1], “NZ/NI”; with S. aureus 6538 [2] it was “NZ/I”.
